Measured values as given in patent US20060020110A1, “Synthetic peptides that bind to the hepatitis B virus core and E antigens” (priority 2000, published 2006).

Tests used:
HBcAg [1] = target: T1, HBcAg (Hepatitis B virus genotype D subtype ayw, UniProt P03146); settings: for OD at 490 nm, bound peptide SEQ. ID. No. 74: HBcAg coated 1 μg/ml, 5 μg SEQ. ID. No. 74 + 5 μg HBcAg peptide, no inhibitor OD 1.454; for Std. Deviation from the mean: deviation of the OD from the mean OD of all peptides
Procedure: In this experiment, microplates were coated overnight with 1 μg/ml HBcAg and, subsequently, a 100 μl mixture containing 5 μg of the peptide […] […] The HBcAg peptides were approximately 20 amino acids in length and corresponded to regions of HBcAg spanning amino acid residues 11-183. The experiment was performed in triplicate.

HBeAg = target: T2, HBeAg (Hepatitis B virus genotype D subtype ayw, UniProt P0C573); assay: Redirection of HSV gG2 mAb to HBeAg on solid phase by fusion peptide in solution; format: binding; settings: fusion peptide in solution 20 μg/well
T2 construct: containing nine residues of pre-core and the 150 first residues of HBcAg; made in house
T2 sequence (P0C573 21-179): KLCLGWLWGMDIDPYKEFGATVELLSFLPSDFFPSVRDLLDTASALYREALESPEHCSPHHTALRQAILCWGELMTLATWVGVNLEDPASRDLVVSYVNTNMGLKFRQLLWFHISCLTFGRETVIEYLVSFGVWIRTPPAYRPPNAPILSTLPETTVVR
Source text: (§1) ID. […] The specificity exchangers provided in SEQ. ID. […] Similarly, the specificity exchangers provided in SEQ. ID.

HBcAg [2] = target: T1, HBcAg; settings: fusion peptide in solution 20 μg/well
Procedure: To evaluate the efficacy of the specificity exchangers described above, several binding assays using a mAb specific for HSV gG2 were conducted. In one assay, the various specificity exchangers were coated onto microtiterplates and were bound with the mAb specific for HSV gG2. […] ID. […] In another assay, HBcAg was coated onto microtiter plates, specificity exchanger was added (20 μg/well), and the binding of the mAb specific for HSV gG2 was determined. […] ID. […] In another binding assay, HBeAg was coated onto microtiter plates, specificity exchanger was added (20 μg/well), and the binding of the mAb specific for HSV gG2 was determined. […] ID. […] The characterization assays used to evaluate binding partners can also be used and/or modified for the analysis of the specificity exchangers.

mAb specific for HSV gG2 = assay: gG2 mAb binding to fusion peptide on solid phase; settings: no addition of fusion peptide in solution
Source text: as §1

HBcAg [3] = target: T1, HBcAg; settings: peptide added prior to addition of mAb; uninhibited control mean OD 0.871
Source text: (§2) One approach to rational drug design involves sequential amino acid deletion of a known binding partner starting from either the amino or carboxy termini. Amino-terminal deletions of the binding partners of SEQ. ID. Nos. 5 and 17 were made and these peptide fragments were joined to a support and analyzed for the ability to bind HBcAg. […] ID. […] The amino-terminal deletions of the peptide of SEQ. ID. […] The amino-terminal deletion products of the peptide of SEQ. ID. […] ID.
Variations of the characterization assays described above include competitive binding assays. […] Initial experiments were conducted by contacting binding partner to HBcAg prior to introducing the antibody. […] ID. […] ID. […] ID. […] ID. […] ID. […] ID.

HBcAg [4] = target: T1, HBcAg; settings: for OD at 490 nm, HBcAg binding to support-bound amino terminal deletion peptides: HBcAg added at 5 μg/ml
Source text: as §2
To determine whether a candidate binding partner bound to HBcAg and/or HbeAg, a multimeric support-based binding assay was performed. Accordingly, synthetic peptides corresponding to the VH and VL domains of the sequenced mAbs were passively adsorbed to 96 well microplates in serial dilutions starting at 200 μg/ml. The peptide coated plates were then incubated with HBcAg and HBeAg serially diluted in PBS-GT. The amount of HBcAg and HBeAg bound by the peptides was then detected using a mAb directed to an epitope common to HBcAg and HBeAg (See Sällberg et al., J General Virology 74:1335-1340 (1993), herein expressly incorportaed by reference in its entirety) diluted 1:3000 in PBS-GT. The quantity of bound mAb was determined by addition by peroxidase labeled rabbit anti-mouse IgG (P260, Dako A S, Denmark). The plates were developed by incubation with ortho-phenylene-diamine (Sigma) and the absorbance at 492 nm was evaluated.
The converse of an aspect of this experiment was also performed. That is, various dilutions of support-bound binding partners (SEQ. ID. Nos. 5, 16, 17, 28, and 29) were contacted with 10 μg/ml of HBcAg and binding was evaluated. ID.

T1 sequence (P03146 whole entry, the tested form may be a part): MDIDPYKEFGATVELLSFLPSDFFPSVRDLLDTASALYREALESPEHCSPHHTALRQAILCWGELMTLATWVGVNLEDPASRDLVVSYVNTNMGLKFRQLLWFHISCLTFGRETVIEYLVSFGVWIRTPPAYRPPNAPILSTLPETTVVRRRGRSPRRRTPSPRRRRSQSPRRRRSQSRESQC

Substance | OD at 490 nm, bound peptide SEQ. ID. No. 74 (HBcAg [1]) | Std. Deviation from the mean (HBcAg [1]) | OD at 490 nm, mAb 4-2 binding to HBcAg (HBcAg [3]) | OD at 490 nm, HBcAg binding to support-bound amino terminal deletion peptides (HBcAg [4]) | also measured
LDTASALYREALESPEHCSP [SEQ. ID. No. 98] | 1.589 | 1.103 |  |  | 
KLSCKASGYIFTSRGGPEEFE [SEQ. ID. No. 72] |  |  |  |  | gG2 mAb binding to indicated antigen on solid phase: HBeAg (HBeAg): 0.040; gG2 mAb binding to indicated antigen on solid phase: HBcAg (HBcAg [2]): 0.016; gG2 mAb binding to indicated antigen on solid phase: fusion peptide (mAb specific for HSV gG2): 0.062
AYRPPNAPILSTLPETTVVR [SEQ. ID. No. 108] | 1.564 | 1.052 |  |  | 
SRDLVVSYVNTNMGLKFRQL [SEQ. ID. No. 103] | 0.386 | −1.323 |  |  | Effect on binding of peptide SEQ. ID. No. 74 to HBcAg (in words) (HBcAg [1]; 5 μg HBcAg peptide + 5 μg SEQ. ID. No. 74, triplicate): consistently reduced the binding
STLPETTVVRRRGRSPRRRT [SEQ. ID. No. 109] | 0.811 | −0.466 |  |  | 
CKASGYIFTS [SEQ. ID. No. 48] |  |  | 0.851 | 0.255 | 
SVKLSCKASGYIFTS [SEQ. ID. No. 43] |  |  | 0.175 | 3.364 | 
KASGYIFTS [SEQ. ID. No. 49] |  |  | 0.866 | 0.237 | 
PGASVKLSCKASGYIFTS [SEQ. ID. No. 40] |  |  | 0.182 | 1.722 | 
QSVSTSSYSYMHWY [SEQ. ID. No. 58] |  |  |  | 0.282 | 
SGYIFTS [SEQ. ID. No. 51] |  |  | 0.887 | 0.389 | 
LWFHISCLTFGRETVIEYLV [SEQ. ID. No. 105] | 1.129 | .175 |  |  | 
CWGELMTLATWVGVNLEDPA [SEQ. ID. No. 101] | 1.395 | 0.712 |  |  | 
PSPRRRRSQSPRRRRSQSRESQC [SEQ. ID. No. 111] | 0.678 | −0.734 |  |  | 
WVGVNLEDPASRDLVVSYVN [SEQ. ID. No. 102] | 1.411 | 0.744 |  |  | 
VSTSSYSYMHWY [SEQ. ID. No. 60] |  |  |  | 0.369 | 
QLNSLTSEDSAVYYCARGKG (Synthetically prepared amino acid sequence) [Peptide 32] |  |  |  |  | OD at 405 nm to indicated antigen: HBcAg 0.2 μg/well (HBcAg [4]; support-bound peptide, HBcAg 0.2 μg/well): 0.121; OD at 405 nm to indicated antigen: HBcAg 2 μg/well (HBcAg [4]; support-bound peptide, HBcAg 2 μg/well): 0.528
SQSVSTSSYSYMHWY [SEQ. ID. No. 57] |  |  |  | 0.310 | 
RRGRSPRRRTPSPRRRRSQS [SEQ. ID. No. 110] | 0.732 | −0.625 |  |  | 
ASGYIFTS [SEQ. ID. No. 50] |  |  | 0.920 | 0.407 | 
ASQSVSTSSYSYMHWY [SEQ. ID. No. 56] |  |  |  | 0.324 | 
KPGASVKLSCKASGYIFTS [SEQ. ID. No. 39] |  |  | 0.202 | 1.337 | 
SCKASGYIFTS [SEQ. ID. No. 47] |  |  | 0.784 | 0.297 | 
